Values joined by “and” are separate entries in the source; they are usually repeats but may differ in a detail not shown here. Equal entries are not always repeated. Where two headings read alike, the source gives them in different places.
Assays:
MDD from B. floridae = MDD from B. floridae (Branchiostoma floridae, UniProt C3ZGP5); assay: Steady-state kinetics, coupled assay, MDD; assay type: biochemical; details: substrate MVAPP
[1] = system: MDD homolog from R. castenholzii; assay: Steady-state kinetics, MDD homolog tested as MDD; assay type: biochemical
Experimental: (§1) Instead, it behaves as an MPD and catalyzes the decarboxylation of MVAP (3) to IP (4) with a kcat of 0.94 s^−1 and an apparent KM for MVAP of 1.150 mM (Table 2). This enzyme, by sequence homologous to MDD, has acquired an unexpected new function as a bona fide MPD playing the role of the long sought MPD of the alternative MVA pathway.
(§2) Steady-state kinetic analyses.

MDD from S. solfataricus = MDD from S. solfataricus (Saccharolobus solfataricus, UniProt Q97UL5); assay: Steady-state kinetics, MDD; assay type: biochemical; details: steady state conditions, kinetic parameters could not be assigned
MDD from S. solfataricus, sequence (Q97UL5 whole entry): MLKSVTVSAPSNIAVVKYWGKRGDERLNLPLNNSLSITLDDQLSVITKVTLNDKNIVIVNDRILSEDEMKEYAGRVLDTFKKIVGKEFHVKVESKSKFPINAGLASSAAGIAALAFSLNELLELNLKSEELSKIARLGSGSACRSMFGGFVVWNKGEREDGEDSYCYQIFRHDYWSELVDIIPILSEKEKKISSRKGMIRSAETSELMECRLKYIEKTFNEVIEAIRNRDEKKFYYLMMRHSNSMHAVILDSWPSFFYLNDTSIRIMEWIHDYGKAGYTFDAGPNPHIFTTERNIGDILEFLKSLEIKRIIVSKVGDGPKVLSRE

IPK from B. floridae = IPK from B. floridae (Branchiostoma floridae, UniProt A0A9J7KY69); assay: Steady-state kinetics, coupled assay, IPK
IPK from A. thaliana = IPK from A. thaliana (Arabidopsis thaliana, UniProt Q8H1F7); assay: Kinetics, coupled assay, IPK
IPK from M. maripaludis = IPK from M. maripaludis (Methanococcus maripaludis, UniProt Q6LWR2); assay: Steady-state kinetics, coupled pyruvate kinase-lactate dehydrogenase assay, IPK
MJ0403 = MJ0403 (Methanocaldococcus jannaschii, UniProt Q57846); assay: In vitro decarboxylase activity of MJ0403; assay type: biochemical, M. jannaschii
MJ0403, sequence (Q57846 whole entry): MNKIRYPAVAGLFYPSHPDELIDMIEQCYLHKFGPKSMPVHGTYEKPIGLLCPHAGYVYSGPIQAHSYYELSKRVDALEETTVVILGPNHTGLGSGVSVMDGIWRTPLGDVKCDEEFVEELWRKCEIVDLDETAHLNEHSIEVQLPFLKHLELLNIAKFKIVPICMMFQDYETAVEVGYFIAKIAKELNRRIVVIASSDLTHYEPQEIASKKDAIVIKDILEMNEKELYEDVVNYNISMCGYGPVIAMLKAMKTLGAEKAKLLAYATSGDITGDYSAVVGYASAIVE
Text: MJ0403 encodes a protein that is similar in sequence to subunit B of class III extradiol ring-cleavage dioxygenases and is also homologous to the human protein MEMO (mediator of erbB2-driven cell motility).

[2] = system: MPD and IPK from R. castenholzii; assay: GC-MS in vitro alternative MVA pathway reaction; assay type: biochemical
Experimental: (§3) GC-MS quantification of fully functional alternative and classical MVA pathways. To confirm that the functional R. castenholzii MPD (MDD-like protein sequence) catalyzes the transformation of MVAP (3) to IP (4) in a reconstituted in vitro pathway, a five-enzyme in vitro reaction mixture was assembled. Briefly, MVAP (3) and ATP were incubated for 30 min with MPD and IPK from R. castenholzii. The reaction mixture was then diluted into a mixture containing all necessary downstream enzymes to biosynthesize the GC-detectable sesquiterpene 5-epi-aristolochene (5-EA, 6). Similar reactions were performed for the in vitro reconstitution of the classical MVA pathway using PMK and MDD from each respective organism.
All GC-MS assays were carried out in two steps. First, 1 μM of each of two enzymes (PMK and MDD for the classical MVA pathway, MDD and IPK for the alternative MVA pathway) was incubated for 30 min with 500 μM (RS)-MVAP, 4 mM ATP, and 10 mM MgCl2 buffered with 50 mM Tris-HCl, pH 8.0. Second, 40 μl of this reaction was transferred to a glass vial containing 10 mM MgCl2 buffered with 50 mM Tris-HCl, pH 8.0, containing at least a 150-fold excess of each of the following enzymes: E. coli isopentenyl diphosphate isomerase (IPPI), E. coli farnesyl diphosphate synthase (FPPS), and tobacco 5-epi-aristolochene synthase (TEAS). […]

[3] = system: R. castenholzii MDD homolog with B. floridae PMK; assay type: biochemical
[4] = system: PMK and MDD from S. solfataricus; assay: GC-MS in vitro classical MVA pathway reaction; assay type: biochemical; details: S. solfataricus enzymes, 500 μM (RS)-MVAP, relative to FPP control
Experimental: as §3
(§4) All GC-MS assays were carried out in two steps. First, 1 μM of each of two enzymes (PMK and MDD for the classical MVA pathway, MDD and IPK for the alternative MVA pathway) was incubated for 30 min with 500 μM (RS)-MVAP, 4 mM ATP, and 10 mM MgCl2 buffered with 50 mM Tris-HCl, pH 8.0. Second, 40 μl of this reaction was transferred to a glass vial containing 10 mM MgCl2 buffered with 50 mM Tris-HCl, pH 8.0, containing at least a 150-fold excess of each of the following enzymes: E. coli isopentenyl diphosphate isomerase (IPPI), E. coli farnesyl diphosphate synthase (FPPS), and tobacco 5-epi-aristolochene synthase (TEAS). This reaction mixture was overlaid with ethyl acetate, incubated overnight, and vortexed to extract hydrocarbons from the aqueous layer. GC-MS assays were performed as previously described (18). All values were compared to a control reaction, where FPP was added in place of MVA pathway enzymes at an appropriate concentration to simulate complete turnover of MVAP.

[5] = system: PMK and MDD from B. floridae; assay: GC-MS in vitro classical MVA pathway reaction; assay type: biochemical; details: B. floridae enzymes, 500 μM (RS)-MVAP, relative to FPP control
Experimental: as §3, §4

[6] = system: PMK and MDD from A. thaliana; assay: GC-MS in vitro classical MVA pathway reaction; assay type: biochemical; details: A. thaliana enzymes, 500 μM (RS)-MVAP, relative to FPP control
Experimental: as §3, §4

[7] = system: MPD from R. castenholzii (SEQ ID NO: 1); assay: Steady-state kinetics, coupled assay, MPD; assay type: biochemical
Experimental: as §1, §2

PMK from S. solfataricus = PMK from S. solfataricus (Saccharolobus solfataricus, UniProt Q97UL6); assay: Steady-state kinetics, coupled assay, PMK; assay type: biochemical
PMK from S. solfataricus, sequence (Q97UL6 whole entry): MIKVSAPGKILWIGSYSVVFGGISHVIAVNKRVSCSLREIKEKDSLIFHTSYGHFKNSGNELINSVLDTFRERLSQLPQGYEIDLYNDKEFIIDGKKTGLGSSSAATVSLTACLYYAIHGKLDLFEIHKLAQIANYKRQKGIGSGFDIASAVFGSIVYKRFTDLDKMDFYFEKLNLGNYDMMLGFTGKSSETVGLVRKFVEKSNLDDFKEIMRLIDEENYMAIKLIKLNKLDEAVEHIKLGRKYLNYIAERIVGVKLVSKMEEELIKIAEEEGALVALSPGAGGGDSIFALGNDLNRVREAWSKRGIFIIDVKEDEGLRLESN

[8] = system: IPK and MDD from S. solfataricus; assay: GC-MS in vitro alternative MVA pathway reaction; assay type: biochemical
Text: (§5) The in vitro classical MVA pathway reactions for S. solfataricus, A. thaliana, and B. floridae yield 39.2%, 48.7%, and 52.1% conversion of MVAP (3) to 5-EA (6), respectively (FIG. 3). The in vitro classical MVA pathway reaction from R. castenholzii (using B. floridae PMK to complete the missing step) yields less then 0.2% conversion to 5-EA (FIG. 3). In contrast, the in vitro alternative MVA pathway from R. castenholzii enzymes yields a 2.0% conversion of MVAP (3) to 5-EA (6). B. floridae, A. thaliana, and S. solfataricus were tested for a possible alternative MVA pathway components using their IPKs and MDDs.
as §4

[9] = system: IPK and MDD from A. thaliana; assay: GC-MS in vitro alternative MVA pathway reaction; assay type: biochemical
Text: as §5, §4

[10] = system: IPK and MDD from B. floridae; assay: GC-MS in vitro alternative MVA pathway reaction; assay type: biochemical
Text: as §5, §4

PMK from B. floridae = PMK from B. floridae (Branchiostoma floridae, UniProt C3Y1G0); assay: Steady-state kinetics, coupled assay, PMK; assay type: biochemical; details: substrate MVAP
PMK from B. floridae, sequence (C3Y1G0 1-201): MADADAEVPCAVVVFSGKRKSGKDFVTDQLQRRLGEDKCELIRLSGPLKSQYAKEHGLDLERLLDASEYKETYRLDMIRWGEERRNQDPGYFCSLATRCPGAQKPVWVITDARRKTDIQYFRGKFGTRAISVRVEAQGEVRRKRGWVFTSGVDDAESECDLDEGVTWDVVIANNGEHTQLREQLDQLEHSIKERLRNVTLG

[11] = substrate: CC(O)(CCOP(=O)(O)O)CC(=O)O; assay: purified protein, by the assay type; details: other: substrate MVAP; A. thaliana PMK
[12] = substrate: C=C(C)CCOP(=O)(O)O; assay: purified protein, by the assay type; details: other: substrate IP
[13] = substrate: CC(O)(CCOP(=O)(O)OP(=O)(O)O)CC(=O)O; assay: purified protein, by the assay type; details: other: substrate MVAPP; A. thaliana MDD

MDD from B. floridae, sequence (C3ZGP5 1-409): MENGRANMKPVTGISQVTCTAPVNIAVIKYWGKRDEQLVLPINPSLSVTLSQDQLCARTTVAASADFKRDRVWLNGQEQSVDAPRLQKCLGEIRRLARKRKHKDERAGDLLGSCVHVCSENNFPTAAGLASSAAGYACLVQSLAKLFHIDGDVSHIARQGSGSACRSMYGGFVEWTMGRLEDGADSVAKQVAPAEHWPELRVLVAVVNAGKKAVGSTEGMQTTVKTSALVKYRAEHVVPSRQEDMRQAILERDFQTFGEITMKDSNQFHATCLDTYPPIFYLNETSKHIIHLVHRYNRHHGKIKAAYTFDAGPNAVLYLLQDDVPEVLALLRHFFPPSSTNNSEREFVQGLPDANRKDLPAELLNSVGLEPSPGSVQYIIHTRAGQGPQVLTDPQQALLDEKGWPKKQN

In the case of CC(O)(CCOP(=O)(O)OP(=O)(O)O)CC(=O)O (racemic) [MVAPP, diphosphomevalonate], the Km (MDD from B. floridae) is reported as 15.1 µM, the kcat (MDD from B. floridae) is reported as 1.36 (±0.09) s^−1 and the “decarboxylation of MVAPP to IPP at a measurable rate” value [1] is reported as “does not catalyze”. The “rate of decarboxylation of MVAPP” value (MDD from S. solfataricus) was “very slow rate”.

C=C(C)CCOP(=O)(O)O [IP, isopentenyl phosphate] was tested, and the Ki (IPK from B. floridae) was 2.82 mM, the Ki (IPK from A. thaliana) was 522 µM and the Ki (IPK from M. maripaludis) was 877 µM.

For CC(O)(CCOP(=O)(O)O)CC(=O)O (stereo not shown) [MVAP, phosphomevalonate], the “turnover of MVAP (decarboxylase activity)” value (MJ0403) was “failed to show any turnover”, the “conversion of MVAP to 5-EA” value [2] was 2.0% and the “conversion to 5-EA” value [3] was < 0.2%. The “conversion of MVAP to 5-EA” value [4] was 39.2%, the “conversion of MVAP to 5-EA” value [5] was 52.1% and the “conversion of MVAP to 5-EA” value [6] was 48.7%. The Km ([7]; decarboxylation of MVAP to IP, read-out: apparent KM for MVAP) was 1.15 mM, the kcat ([7]; substrate MVAP) was 0.94 s^−1 and 0.94 (±0.08) s^−1 and the Km ([7]; substrate MVAP, read-out: KM) was 1.15 mM. The Ki (PMK from S. solfataricus) was 5.5 mM, the kcat (PMK from S. solfataricus; substrate MVAP, S. solfataricus PMK) was 1.98 (±0.10) s^−1 and the 5-EA formation [8] was “do not yield any detectable 5-EA”. For the same molecule, the 5-EA formation [9] was “do not yield any detectable 5-EA”, the 5-EA formation [10] was “do not yield any detectable 5-EA” and the kcat (PMK from B. floridae) was 12.6 (±0.4) s^−1.

B1: PMK from A. thaliana (Arabidopsis thaliana) (protein)
chain: MAVVASAPGKVLMTGGYLVLEKPNAGLVLSTNARFYAIVKPINEEVKPESWAWKWTDVKLTSPQLSRESMYKLSLNHLTLQSVSASDSRNPFVEHAIQYAIAAAHLATEKDKESLHKLLLQGLDITILGSNDFYSYRNQIESAGLPLTPESLGTLAPFASITFNAAESNGANSKPEVAKTGLGSSAAMTTAVVAALLHYLGVVDLSDPCKEGKFGCSDLDVIHMIAQTSHCLAQGKVGSGFDVSCAVYGSQRYVRFSPEVLSFAQVAVTGLPLNEVIGTILKGKWDNKRTEFSLPPLMNLFLGEPGSGGSSTPSMVGAVKKWQMSDPEKARENWQNLSDANLELETKLNDLSKLAKDHWDVYLRVIKSCSVLTSEKWVLHATEPINEAIIKELLEAREAMLRIRILMRQMGEAASVPIEPESQTQLLDSTMSAEGVLLAGVPGAGGFDAIFAITLGDSGTKLTQAWSSHNVLALLVREDPHGVCLESGDPRTTCITSGVSSIHLE
B1 was tested, and the Km [11] was 11.8 (±2.0) μM, the kcat [11] was 20.9 ± 0.7 s⁻¹ and the kcat/Km [11] was 1.77e+06 ± 310000 M⁻¹ s⁻¹.

B2: IPK from M. maripaludis (Methanococcus maripaludis S2) (protein)
chain: MFAILKLGGSILCDKNIPYSINWENLENIAIEIKEAIEYYKSKNEEFKLIIVHGGGSFGHPVAKKYLKDGKFVDMGKGYWEIQKAMRKFNNIVIEELQNFEIPAVSIQASSFITFDNESNLHFDTNAVEKMLDKGLIPVIHGDIVIDEKTDNFKIFSGDHALPFLSKKLNPDLSLHASDVDGVWDLNFKIIENINSKNIEDVLKSLKPSNKEDVTGGMHLKVMECYNLGIKTIIFNGNKKRNIYNALLKNVKGTLIN
B2 was tested, and the Km ([12]; M. maripaludis IPK) was 21.4 (±4.3) μM, the kcat ([12]; M. maripaludis IPK) was 15.2 s⁻¹ and the kcat/Km ([12]; M. maripaludis IPK) was 710000 M⁻¹ s⁻¹.

B3: IPK from T. adhaerens (Trichoplax adhaerens) (protein)
chain: MALENRHVDCIIKLGGSAITSKQHLEKANTQAINIAASHVHEMTRKCVIVHGAGSFGHFHAKKYNIATGFNDTDFEQQRIGFSQTRLSVTKLNHIIVQALIEKDVPAVSISPCGLWKTTDRSVTSTFLQPINDLLRAGFVPVVHGDAVIDTSLGCTILSGDTIIQILAENLCPKRIIFITDTNGIYDRPPHNDDAKLLRYISVTKDGKVTNEIETSQLEHDVTGGVQTKIASAAHIVSKCNIPVHVVKLGSAAAWKLLDKGELEESDIATTITLQESEYPK
B3 was tested, and the Km ([12]; T. adhaerens IPK) was 3.1 (±1.6) μM, the kcat ([12]; T. adhaerens IPK) was 2.4 s⁻¹ and the kcat/Km ([12]; T. adhaerens IPK) was 770000 M⁻¹ s⁻¹.

B4: MDD from A. thaliana (Arabidopsis thaliana) (protein)
chain: MAEEKWVVMVTAQTPTNIAVIKYWGKRDEVRILPINDSISVTLDPDHLCTLTTVAVSPSFDRDRMWLNGKEISLSGSRYQNCLREIRSRADDVEDKEKGIKIAKKDWEKLHLHIASHNNFPTAAGLASSAAGFACLVFALAKLMNVNEDPSQLSAIARQGSGSACRSLFGGFVKWNMGNKEDGSDSVAVQLVDDKHWDDLVIIIAVVSSRQKETSSTSGMRESVETSLLLQHRAKEVVPVRILQMEEAIKNRDFTSFTKLTCSDSNQFHAVCMDTSPPIFYMNDTSHRIISLVEKWNRSAGTPEIAYTFDAGPNAVMIARNRKVAVELLQGLLYCFPPKPDTDMKSYVLGDTSIVKEAGLEGELPQGIKDKIGSQDQKGEVSYFICSRPGRGPVVLQDQTQALLHPQTGLPK
B4 was tested, and the Km [13] was 15.7 (±5.0) μM, the kcat [13] was 2.02 ± 0.13 s⁻¹ and the kcat/Km [13] was 130000 ± 40000 M⁻¹ s⁻¹.

B5: IPK from B. floridae (Branchiostoma floridae) (protein)
chain: MVSSSRSKVMAEADASLECIVKLGGSAVTDKSTLETPRLDAIRAAADIISQVRGRCIVVHGAGSFGHFQAREHGVVWGYRDKETDTEVQTVKLGFCRTRQSVTKLLHIITEEFVRLGIPAVGVSPLSSWVTDDASVVKADTDNIRDMLLEGFLPVMHGDAVLDRKRGCTILSGDTIIKHLCSVFRPPRVVFLTDVPGIYDRPPEQPGAQLIPEIQVDRDRKLHVSIATSSQAHDVTGGIALKLKSAIDIVTESNGHTCVMVCGIQSQAAVRACVEGQLPQGTGTIVQLNISKHPDEVT
For B5, the Km ([12]; B. floridae IPK) was 13.3 (±2.0) μM, the kcat ([12]; B. floridae IPK) was 27.2 s⁻¹ and the kcat/Km ([12]; B. floridae IPK) was 2.05e+06 M⁻¹ s⁻¹.

B6: IPK from A. thaliana (Arabidopsis thaliana) (protein)
chain: MELNISESRSRSIRCIVKLGGAAITCKNELEKIHDENLEVVACQLRQAMLEGSAPSKVIGMDWSKRPGSSEISCDVDDIGDQKSSEFSKFVVVHGAGSFGHFQASRSGVHKGGLEKPIVKAGFVATRISVTNLNLEIVRALAREGIPTIGMSPFSCGWSTSKRDVASADLATVAKTIDSGFVPVLHGDAVLDNILGCTILSGDVIIRHLADHLKPEYVVFLTDVLGVYDRPPSPSEPDAVLLKEIAVGEDGSWKVVNPLLEHTDKKVDYSVAAHDTTGGMETKISEAAMIAKLGVDVYIVKAATTHSQRALNGDLRDSVPEDWLGTIIRFSK
With B6 the Km ([12]; A. thaliana IPK) was 0.79 (±0.35) μM, the kcat ([12]; A. thaliana IPK) was 1.9 s⁻¹ and the kcat/Km ([12]; A. thaliana IPK) was 2.4e+06 M⁻¹ s⁻¹.
